The numbers were not newly measured in PubChem BioAssay AID1259409 (Chemical Carcinogenesis Research Information System (CCRIS), 2018), which cites them from elsewhere.

For the data set, the system named is rodent chemically induced tumor inhibition, incidence and multiplicity. Briefly: CCRIS tumor inhibitor studies. To be noted: Route [Inhibitor]: ORAL, Species: RAT, Promoter: NONE USED.

`O=[Se](O)O`: the “tumour outcome (control, treated, inhibition, significance)” value reads like this: (Carcinogen: 7,12-DIMETHYLBENZ[A]ANTHRACENE, 57-97-6, Dose [Inhibitor]: 5 PPM IN 25% CORN OIL DIET DAILY FOR 4 WK STARTING 2 WK BEFORE CARCINOGEN TREATMENT AND CONTINUING FOR 2 WK POST CARCINO, Strain/Sex: SPRAGUE-DAWLEY/FEMALE, Target Tissue: Type of Lesion: MAMMARY GLAND: ADENOCARCINOMA, Dose [Carcinogen]: 10 MG ONCE AT 50 D OF AGE) 97%, 72%, 26%, p<0.02; (Carcinogen: 7,12-DIMETHYLBENZ[A]ANTHRACENE, 57-97-6, Dose [Inhibitor]: 5 PPM IN 25% CORN OIL DIET DAILY FOR 10 WK STARTING 2 WK AFTER CARCINOGEN TREATMENT (STUDY DURATION: 24 WK), Strain/Sex: SPRAGUE-DAWLEY/FEMALE, Target Tissue: Type of Lesion: MAMMARY GLAND: ADENOCARCINOMA, Dose [Carcinogen]: 10 MG ONCE AT 50 D OF AGE) 97%, 86%, 11%, not significant; (Carcinogen: 7,12-DIMETHYLBENZ[A]ANTHRACENE, 57-97-6, Dose [Inhibitor]: 5 PPM IN 25% CORN OIL DIET DAILY FOR 12 WK STARTING 12 WK AFTER CARCINOGEN TREATMENT (STUDY DURATION: 24 WK), Strain/Sex: SPRAGUE-DAWLEY/FEMALE, Target Tissue: Type of Lesion: MAMMARY GLAND: ADENOCARCINOMA, Dose [Carcinogen]: 10 MG ONCE AT 50 D OF AGE) 97%, 91%, 6%, not significant; (Carcinogen: 7,12-DIMETHYLBENZ[A]ANTHRACENE, 57-97-6, Dose [Inhibitor]: 5 PPM IN 25% CORN OIL DIET DAILY FOR 14 WK STARTING 2 WK BEFORE CARCINOGEN TREATMENT (STUDY DURATION: 26 WK), Strain/Sex: SPRAGUE-DAWLEY/FEMALE, Target Tissue: Type of Lesion: MAMMARY GLAND: ADENOCARCINOMA, Dose [Carcinogen]: 10 MG ONCE AT 50 D OF AGE) 97%, 57%, 41%, p<0.02; (Carcinogen: 7,12-DIMETHYLBENZ[A]ANTHRACENE, 57-97-6, Dose [Inhibitor]: 5 PPM IN 25% CORN OIL DIET DAILY FOR 22 WK STARTING 2 WK AFTER CARCINOGEN TREATMENT AND CONTINUING FOR DURATION OF STUDY, Strain/Sex: SPRAGUE-DAWLEY/FEMALE, Target Tissue: Type of Lesion: MAMMARY GLAND: ADENOCARCINOMA, Dose [Carcinogen]: 10 MG ONCE AT 50 D OF AGE) 97%, 69%, 26%, p<0.02; (Carcinogen: 7,12-DIMETHYLBENZ[A]ANTHRACENE, 57-97-6, Dose [Inhibitor]: 5 PPM IN 25% CORN OIL DIET DAILY FOR 26 WK STARTING 2 WK BEFORE CARCINOGEN TREATMENT AND CONTINUING FOR DURATION OF STUD, Strain/Sex: SPRAGUE-DAWLEY/FEMALE, Target Tissue: Type of Lesion: MAMMARY GLAND: ADENOCARCINOMA, Dose [Carcinogen]: 10 MG ONCE AT 50 D OF AGE) 97%, 46%, 53%, p<0.02. The “tumour outcome (control, treated, inhibition, significance)” value (Carcinogen: AZOXYMETHANE, 25843-45-2, Dose [Inhibitor]: 0.5 PPM IN DIET BEGINNING 1 WK POST CARCINOGEN DOSE FOR DURATION OF STUDY (STUDY DURATION: 39 WK), Strain/Sex: F344/MALE, Target Tissue: Type of Lesion: COLON: ADENOCARCINOMA, Dose [Carcinogen]: 15 MG/KG BW 1/WK FOR 2 WK) is 10/27 (37%), 9/27 (33%), 11%, not significant; the “tumour outcome (control, treated, inhibition, significance)” value (Carcinogen: AZOXYMETHANE, 25843-45-2, Dose [Inhibitor]: 0.5 PPM IN DIET BEGINNING 1 WK POST CARCINOGEN DOSE FOR DURATION OF STUDY (STUDY DURATION: 39 WK), Strain/Sex: F344/MALE, Target Tissue: Type of Lesion: COLON: ADENOMA, Dose [Carcinogen]: 15 MG/KG BW 1/WK FOR 2 WK) is 16/27 (59%), 20/27 (74%), -25%, not significant; the “tumour outcome (control, treated, inhibition, significance)” value (Carcinogen: AZOXYMETHANE, 25843-45-2, Dose [Inhibitor]: 0.5 PPM IN DIET BEGINNING 1 WK POST CARCINOGEN DOSE FOR DURATION OF STUDY (STUDY DURATION: 39 WK), Strain/Sex: F344/MALE, Target Tissue: Type of Lesion: DUODENUM: ADENOCARCINOMA, Dose [Carcinogen]: 15 MG/KG BW 1/WK FOR 2 WK) was 7/27 (26%), 7/27 (26%), 0%, not significant; the “tumour outcome (control, treated, inhibition, significance)” value (Carcinogen: AZOXYMETHANE, 25843-45-2, Dose [Inhibitor]: 0.5 PPM IN DIET BEGINNING 1 WK POST CARCINOGEN DOSE FOR DURATION OF STUDY (STUDY DURATION: 39 WK), Strain/Sex: F344/MALE, Target Tissue: Type of Lesion: DUODENUM: ADENOMA, Dose [Carcinogen]: 15 MG/KG BW 1/WK FOR 2 WK) was 3/27 (11%), 4/27 (15%), -36%, not significant; the “tumour outcome (control, treated, inhibition, significance)” value (Carcinogen: AZOXYMETHANE, 25843-45-2, Dose [Inhibitor]: 0.5 PPM IN DIET BEGINNING 3 WK PRIOR TO CARCINOGEN DOSE AND CONTINUING FOR 1 WK POST CARCINOGEN DOSE (STUDY DURATION: 39, Strain/Sex: F344/MALE, Target Tissue: Type of Lesion: COLON: ADENOMA, Dose [Carcinogen]: 15 MG/KG BW 1/WK FOR 2 WK) was 16/27 (59%), 16/27 (59%), 0%, not significant; the “tumour outcome (control, treated, inhibition, significance)” value (Carcinogen: AZOXYMETHANE, 25843-45-2, Dose [Inhibitor]: 0.5 PPM IN DIET BEGINNING 3 WK PRIOR TO CARCINOGEN DOSE AND CONTINUING FOR 1 WK POST CARCINOGEN DOSE (STUDY DURATION: 39, Strain/Sex: F344/MALE, Target Tissue: Type of Lesion: DUODENUM: ADENOCARCINOMA, Dose [Carcinogen]: 15 MG/KG BW 1/WK FOR 2 WK) is given as 7/27 (26%), 7/27 (26%), 0%, not significant. The “tumour outcome (control, treated, inhibition, significance)” value runs as follows: (Carcinogen: AZOXYMETHANE, 25843-45-2, Dose [Inhibitor]: 0.5 PPM IN DIET BEGINNING 3 WK PRIOR TO CARCINOGEN DOSE AND CONTINUING FOR 1 WK POST CARCINOGEN DOSE (STUDY DURATION: 39, Strain/Sex: F344/MALE, Target Tissue: Type of Lesion: DUODENUM: ADENOMA, Dose [Carcinogen]: 15 MG/KG BW 1/WK FOR 2 WK) 3/27 (11%), 2/27 (7%), 36%, not calculated; (Carcinogen: AZOXYMETHANE, 25843-45-2, Dose [Inhibitor]: 2.5 PPM IN DIET BEGINNING 1 WK POST CARCINOGEN DOSE FOR DURATION OF STUDY (STUDY DURATION: 39 WK), Strain/Sex: F344/MALE, Target Tissue: Type of Lesion: COLON: ADENOCARCINOMA, Dose [Carcinogen]: 15 MG/KG BW 1/WK FOR 2 WK) 10/27 (37%), 1/27 (4%), 89%, p<0.05; (Carcinogen: AZOXYMETHANE, 25843-45-2, Dose [Inhibitor]: 2.5 PPM IN DIET BEGINNING 1 WK POST CARCINOGEN DOSE FOR DURATION OF STUDY (STUDY DURATION: 39 WK), Strain/Sex: F344/MALE, Target Tissue: Type of Lesion: COLON: ADENOMA, Dose [Carcinogen]: 15 MG/KG BW 1/WK FOR 2 WK) 16/27 (59%), 12/27 (44%), 25%, not significant.
